molecular target: HEK293 cells with stable expression of the GRIN1 gene and tetracycline-inducible expression of the GRIN2B gene (NMDA receptor, NR2B) (Homo sapiens, UniProt Q13224); experiment: Fluo-8 Ca2+ flux assay: reversal of Ro 25-6981-mediated suppression of the Ca2+ response to co-agonist (glutamate/glycine); assay type: cell-based; conditions: reversal of the Ro 25-6981 suppression of the Ca2+ response to co-agonist (glutamate/glycine); also: test concentration or dose not given here
Sequence (Q13224 27-1484, other chains not shown): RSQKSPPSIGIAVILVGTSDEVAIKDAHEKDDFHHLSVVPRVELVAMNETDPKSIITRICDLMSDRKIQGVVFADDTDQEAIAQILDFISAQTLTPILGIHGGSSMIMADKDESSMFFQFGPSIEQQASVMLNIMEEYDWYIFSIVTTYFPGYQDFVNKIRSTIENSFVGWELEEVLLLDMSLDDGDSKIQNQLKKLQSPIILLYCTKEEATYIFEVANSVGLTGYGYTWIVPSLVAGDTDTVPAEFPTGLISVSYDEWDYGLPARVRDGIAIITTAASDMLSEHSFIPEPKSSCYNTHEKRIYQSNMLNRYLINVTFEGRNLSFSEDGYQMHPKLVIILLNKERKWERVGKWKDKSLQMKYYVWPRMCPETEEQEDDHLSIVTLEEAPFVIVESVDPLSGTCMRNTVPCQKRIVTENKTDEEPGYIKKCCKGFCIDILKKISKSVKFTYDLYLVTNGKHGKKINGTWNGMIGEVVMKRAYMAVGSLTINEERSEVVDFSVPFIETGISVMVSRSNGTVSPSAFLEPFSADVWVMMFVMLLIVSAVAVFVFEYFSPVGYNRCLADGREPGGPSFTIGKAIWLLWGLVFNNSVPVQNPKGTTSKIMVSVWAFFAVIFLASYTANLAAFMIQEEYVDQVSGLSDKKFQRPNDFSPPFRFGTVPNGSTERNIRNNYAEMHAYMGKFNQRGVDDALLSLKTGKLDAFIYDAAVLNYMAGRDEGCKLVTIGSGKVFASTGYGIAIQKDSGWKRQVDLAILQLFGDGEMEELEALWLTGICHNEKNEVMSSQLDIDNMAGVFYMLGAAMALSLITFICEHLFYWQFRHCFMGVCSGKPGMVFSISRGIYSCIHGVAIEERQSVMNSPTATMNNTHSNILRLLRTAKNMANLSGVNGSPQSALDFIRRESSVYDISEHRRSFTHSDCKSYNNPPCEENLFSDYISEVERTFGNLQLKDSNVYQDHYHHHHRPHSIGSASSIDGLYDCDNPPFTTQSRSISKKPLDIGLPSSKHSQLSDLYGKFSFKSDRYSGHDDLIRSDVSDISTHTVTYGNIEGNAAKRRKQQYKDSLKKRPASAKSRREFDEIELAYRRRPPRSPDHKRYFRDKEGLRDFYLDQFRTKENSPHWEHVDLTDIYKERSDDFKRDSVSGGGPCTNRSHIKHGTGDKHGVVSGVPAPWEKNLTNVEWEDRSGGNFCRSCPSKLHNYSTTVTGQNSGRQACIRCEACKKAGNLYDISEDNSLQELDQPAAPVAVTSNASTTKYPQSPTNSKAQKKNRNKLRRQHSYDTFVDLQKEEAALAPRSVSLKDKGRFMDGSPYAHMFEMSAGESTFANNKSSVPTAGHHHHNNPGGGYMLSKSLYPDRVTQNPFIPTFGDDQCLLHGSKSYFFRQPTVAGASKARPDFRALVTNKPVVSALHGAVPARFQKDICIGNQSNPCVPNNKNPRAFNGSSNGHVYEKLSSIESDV

Compound | Response Recovered (%)
Cn1cc(-n2cc(-c3ccc(Cl)c(Cl)c3)c3c(=O)n(CC(=O)N4CCC(F)C4)ccc32)cn1 (centres unmarked) [Example 283, 3-(3,4-dichlorophenyl)-5-(2-(3-fluoropyrrolidin-1-yl)-2-oxoethyl)-1-(1-methyl-1H-pyrazol-4-yl)-1H-pyrrolo[3,2-c]pyridin-4(5H)-one] | 82%
Cn1cc(-n2cc(-c3ccc(Cl)c(Cl)c3)c3c(=O)n(CC(=O)N4CC(C)(F)C4)ccc32)cn1 [Example 284, 3-(3,4-dichlorophenyl)-5-(2-(3-fluoro-3-methylazetidin-1-yl)-2-oxoethyl)-1-(1-methyl-1H-pyrazol-4-yl)-1H-pyrrolo[3,2-c]pyridin-4(5H)-one] | 5.2%
CC1(F)CN(C(=O)Cn2ccc3c(c(-c4ccc(F)c(Cl)c4)cn3C3CC3)c2=O)C1 [Example 285, 3-(3-chloro-4-fluorophenyl)-1-cyclopropyl-5-(2-(3-fluoro-3-methylazetidin-1-yl)-2-oxoethyl)-1H-pyrrolo[3,2-c]pyridin-4(5H)-one] | 140%
Cn1cc(-n2cc(-c3ccc(F)c(Cl)c3)c3c(=O)n(CC(=O)N4CC(C)(F)C4)ccc32)cn1 [Example 286, 3-(3-chloro-4-fluorophenyl)-5-(2-(3-fluoro-3-methylazetidin-1-yl)-2-oxoethyl)-1-(1-methyl-1H-pyrazol-4-yl)-1H-pyrrolo[3,2-c]pyridin-4(5H)-one] | 130%
CC1(F)CN(C(=O)Cn2ccc3c(c(-c4ccc(F)c(C(F)(F)F)c4)cn3C3CC3)c2=O)C1 [Example 287, 1-cyclopropyl-3-(4-fluoro-3-(trifluoromethyl)phenyl)-5-(2-(3-fluoro-3-methylazetidin-1-yl)-2-oxoethyl)-1H-pyrrolo[3,2-c]pyridin-4(5H)-one] | 140%
CC1(F)CN(C(=O)Cn2ccc3c(c(-c4ccc(Cl)c(Cl)c4)cn3C3CC3)c2=O)C1 [Example 288, 1-cyclopropyl-3-(3,4-dichlorophenyl)-5-(2-(3-fluoro-3-methylazetidin-1-yl)-2-oxoethyl)-1H-pyrrolo[3,2-c]pyridin-4(5H)one] | 130%
CC1(F)CN(C(=O)Cn2ccc3c(c(-c4cnc(Cl)c(Cl)c4)cn3C3CC3)c2=O)C1 [Example 289, 1-cyclopropyl-3-(5,6-dichloropyridin-3-yl)-5-(2-(3-fluoro-3-methylazetidin-1-yl)-2-oxoethyl)-1H-pyrrolo[3,2-c]pyridin-4(5H)-one] | 120%
Cc1cc(-c2cn(C3CC3)c3ccn(CC(=O)N4CC(C)(F)C4)c(=O)c23)ccc1F [Example 290, 1-cyclopropyl-5-(2-(3-fluoro-3-methylazetidin-1-yl)-2-oxoethyl)-3-(4-fluoro-3-methylphenyl)-1H-pyrrolo[3,2-c]pyridin-4(5H)-one] | 120%
CC1(F)CN(C(=O)Cn2ccc3c(c(-c4cnc(F)c(Cl)c4)cn3C3CC3)c2=O)C1 [Example 291, 3-(5-chloro-6-fluoropyridin-3-yl)-1-cyclopropyl-5-(2-(3-fluoro-3-methylazetidin-1-yl)-2-oxoethyl)-1H-pyrrolo[3,2-c]pyridin-4(5H)-one] | 80%
Cc1cc(-c2cn(C3CC3)c3ccn(CC(=O)N4CC(C)(F)C4)c(=O)c23)ccc1Cl [Example 292, 3-(4-chloro-3-methylphenyl)-1-cyclopropyl-5-(2-(3-fluoro-3-methylazetidin-1-yl)-2-oxoethyl)-1,5-dihydro-4H-pyrrolo[3,2-c]pyridin-4-one] | 140%
O=C(Cn1ccc2c(c(-c3ccc(Cl)c(Cl)c3)cn2C2CC2)c1=O)N1CC(F)(CF)C1 [Example 293, 1-cyclopropyl-3-(3,4-dichlorophenyl)-5-(2-(3-fluoro-3-(fluoromethyl)azetidin-1-yl)-2-oxoethyl)-1,5-dihydro-4H-pyrrolo[3,2-c]pyridin-4-one] | 160%
CCC1(F)CN(C(=O)Cn2ccc3c(c(-c4cnc(Cl)c(Cl)c4)cn3C3CC3)c2=O)C1 [Example 294, 1-cyclopropyl-3-(5,6-dichloropyridin-3-yl)-5-(2-(3-ethyl-3-fluoroazetidin-1-yl)-2-oxoethyl)-1,5-dihydro-4H-pyrrolo[3,2-c]pyridin-4-one] | 88%
O=C(Cn1cnc2cccc(-c3ccc(Cl)cc3)c2c1=O)N1CCCC1 [Example 295, 5-(4-chlorophenyl)-3-(2-oxo-2-(pyrrolidin-1-yl)ethyl)quinazolin-4(3H)-one] | 1%
O=C(Cn1cnc2cccc(-c3ccc(Cl)cc3)c2c1=O)N1CC(F)(F)C1 [Example 296, 5-(4-chlorophenyl)-3-(2-(3,3-difluoroazetidin-1-yl)-2-oxoethyl)quinazolin-4(3H)-one] | 9%
O=C(Cn1cnc2cccc(-c3ccc(Cl)cc3)c2c1=O)N1CCCC1C(F)(F)F (centres unmarked) [Example 297, 5-(4-chlorophenyl)-3-(2-oxo-2-(2-(trifluoromethyl)pyrrolidin-1-yl)ethyl)quinazolin-4(3H)-one] | 3%
O=C(Cn1cnc2cccc(-c3ccc(Cl)cc3)c2c1=O)N1CCCC1F (centres unmarked) [Example 298, 5-(4-chlorophenyl)-3-(2-(2-fluoropyrrolidin-1-yl)-2-oxoethyl)quinazolin-4(3H)-one] | 9%
O=C(Cn1ccc2cccc(-c3ccc(Cl)c(C(F)(F)F)c3)c2c1=O)N1CCCC1 [Example 300, 8-(4-chloro-3-(trifluoromethyl)phenyl)-2-(2-oxo-2-(pyrrolidin-1-yl)ethyl)isoquinolin-1(2H)-one] | 37%
O=C(Cn1ccc2cccc(-c3ccc(Cl)c(C(F)(F)F)c3)c2c1=O)N1CC(F)(F)C1 [Example 301, 8-(4-chloro-3-(trifluoromethyl)phenyl)-2-(2-(3,3-difluoroazetidin-1-yl)-2-oxoethyl)isoquinolin-1(2H)-one] | 28%
O=C(Cn1ccc2cccc(-c3ccc(F)c(Cl)c3)c2c1=O)N1CCC(F)C1 (centres unmarked) [Example 302, 8-(3-chloro-4-fluorophenyl)-2-(2-(3-fluoropyrrolidin-1-yl)-2-oxoethyl)isoquinolin-1(2H)-one] | 40%
O=C(Cn1ccc2cccc(-c3ccc(F)c(Cl)c3)c2c1=O)N1CCCC1 [Example 303, 8-(3-chloro-4-fluorophenyl)-2-(2-oxo-2-(pyrrolidin-1-yl)ethyl)isoquinolin-1(2H)-one] | 46%
O=C(Cn1ccc2cccc(-c3ccc(Cl)c(Cl)c3)c2c1=O)N1CCC(F)C1 (centres unmarked) [Example 304, 8-(3,4-dichlorophenyl)-2-(2-(3-fluoropyrrolidin-1-yl)-2-oxoethyl)isoquinolin-1(2H)-one] | 60%
O=C(Cn1ccc2cccc(-c3ccc(Cl)c(F)c3)c2c1=O)N1CC(F)(F)C1 [Example 305, 8-(4-chloro-3-fluorophenyl)-2-(2-(3,3-difluoroazetidin-1-yl)-2-oxoethyl)isoquinolin-1(2H)-one] | 23%
O=C(Cn1ccc2cccc(-c3ccc(Cl)c(F)c3)c2c1=O)N1CCC(F)C1 (centres unmarked) [Example 306, 8-(4-chloro-3-fluorophenyl)-2-(2-(3-fluoropyrrolidin-1-yl)-2-oxoethyl)isoquinolin-1(2H)-one] | 25%

Source: patent US12162890B2 (Novartis AG, priority 2015, dated 2024)
